Data reported in patent US20140263071A1, “METHOD FOR COLLECTING METALS” (CHEMEC OY AB, priority 2011, published 2014).
Marks after values point to notes of the source that are not given here.

Assays:
[1] = Collection of Sc^3+ from silicate soil (Example 25); details: digested spiked silicate soil solution (20 ml); 1a 100 mg; 24 h
Protocol: Silicate soil (1000 g) was spiked with […] (767 mg). A sample (200 mg) was weighted to Teflon vial followed by adding concentrated HCl (9 ml) and HNO3 (3 ml) solutions. The mixture was heated under microwave for 50 min followed by adding HF (3 ml) and microvawe heating was continued until solids were dissolved totally. The resulting solution was treated with 4% H3BO3 (10 ml) with heating and sample A (5 ml) was taken. The rest of the solution (20 ml) was treated with 1a (100 mg) at room temperature for 24 h. After filtration trough 0.2 μm syringe filter Sc^3+ concentration before and after treated was determined by using AAS method to give 87% recovery of Sc^3+.

[2] = Drilled well water softening and purification (Example 15)
Protocol: Drilled well sample 1 (DW 1) was nearby Tampere and sample 2 (DW 2) nearby Turku. Samples (100 ml each) were stirred with 1a (1.0 g) for 24 h. The initial and final metal concentrations in solutions of selected metals were determined by using ICP-AES analysis after filtration and results are shown in Table 9.

[3] = Effect of temperature on expulsion percent, Pb^2+ spiked TS 5, 1a 1.0 g/100 ml, 24 h (Example 12)
Protocol: (§1) A test solution containing 1-15 mg/l of Al^3+, Fe^2/3+, Mg^2+, Mn^2+, Ni^2+ and Zn^2+; 0.1-0.9 mg/l of Ca^2+ and Na^+; and trace amount of other Cr^3+, Co^2+, Cu^2+, Eu^3+, La^3+, Nd^3+, Y^3+, UO2^2+ and Nb^5+ cations were prepared.
Effect of temperature to selected metal expulsion per cents was tested using TS 5 with comlexation agent 1a. TS 5 (100 ml), spiked with known amounts of lead (Pb^2+) cations, was stirred with 1a (1.0 g) at selected temperature for 24 h followed by separation of 1a by filtration trough 0.2 μm syringe filter. Metal concentrations at 4° C., 7° C., 22° C., 30° C., 40° C. and 50° C. were determined by using ICP-AES analysis.

[4] = Simultaneous collection of Ni^2+, Zn^2+, Eu^3+, La^3+, Nd^3+, Y^3+, UO2^2+, Nb^5+ and Zr^4+ from TS 5 (Example 22); details: TS 5, 1a 1 g/100 ml, 24 h
Protocol: as §1
TS 5 (100 ml) was stirred with 1a (1 g) at room temperature for 24 h. After filtration trough 0.2 μm syringe filter metal concentration of Ni^2+, Zn^2+, Eu^3+, La^3+, Nd^3+, Y^3+, UO2^2+, Nb^5+ and Zr^4+ were determined by using ICP-AES and ICP-MS methods. The expulsions percent was calculated for each element from the concentration difference between initial and final solutions and the experimental results are given in Table 16.

With `NCCCCCCCCCCC(O)(P(=O)(O)O)P(=O)(O)O` [Compound 1a, 11-Amino-1-hydroxyundecane-1,1-diyldiphosphonic acid] the “recovery of Sc^3+” value [1] was 87%, the “Concentration after 1a” value ([2]; DW 1 (pH 7.04), Al^3+, initial <0.05 mg/l) was under 0.05 mg/L and the “Concentration after 1a” value ([2]; DW 1 (pH 7.04), Ca^2+, initial 43.8 mg/l) was 0.232 mg/L. The “Concentration after 1a” value ([2]; DW 1 (pH 7.04), Cu^2+, initial <0.05 mg/l) was under 0.05 mg/L, the “Concentration after 1a” value ([2]; DW 1 (pH 7.04), Mg^2+, initial 10.9 mg/l) was <0.1^4) mg/l and the “Concentration after 1a” value ([2]; DW 1 (pH 7.04), Mn^2+, initial 0.095 mg/l) was <0.02^4) mg/l. The “Concentration after 1a” value ([2]; DW 1 (pH 7.04), Na^+, initial 15.2 mg/l) was 13.5 mg/L, the “Concentration after 1a” value ([2]; DW 1 (pH 7.04), Sr^2+, initial 0.097 mg/l) was <0.02^4) mg/l and the “Concentration after 1a” value ([2]; DW 1 (pH 7.04), Zn^2+, initial 0.044 mg/l) was 0.018 mg/L. The “Expulsion [%]” value ([2]; DW 1, Ca^2+) was 99%, the “Expulsion [%]” value ([2]; DW 1, Mg^2+) was ≥ 99^5) % and the “Expulsion [%]” value ([2]; DW 1, Mn^2+) was ≥ 79^5) %. The “Expulsion [%]” value ([2]; DW 1, Na^+) was 11%, the “Expulsion [%]” value ([2]; DW 1, Sr^2+) was ≥ 79^5) % and the “Expulsion [%]” value ([2]; DW 1, Zn^2+) was ≥ 59^5) %. The “Concentration after 1a” value ([2]; DW 2 (pH 6.97), Al^3+, initial 0.107 mg/l) was <0.05^4) mg/l, the “Concentration after 1a” value ([2]; DW 2 (pH 6.97), Ca^2+, initial 22.2 mg/l) was 0.479 mg/L and the “Concentration after 1a” value ([2]; DW 2 (pH 6.97), Cu^2+, initial 0.271 mg/l) was <0.05^4) mg/l. The “Concentration after 1a” value ([2]; DW 2 (pH 6.97), Mg^2+, initial 13.60 mg/l) was 0.102 mg/L, the “Concentration after 1a” value ([2]; DW 2 (pH 6.97), Mn^2+, initial <0.02 mg/l) was under 0.02 mg/L and the “Concentration after 1a” value ([2]; DW 2 (pH 6.97), Na^+, initial 19.0 mg/l) was 17.3 mg/L. For the same compound, the “Concentration after 1a” value ([2]; DW 2 (pH 6.97), Sr^2+, initial 0.113 mg/l) was 0.029 mg/L, the “Concentration after 1a” value ([2]; DW 2 (pH 6.97), Zn^2+, initial 0.284 mg/l) was 0.026 mg/L and the “Expulsion [%]” value ([2]; DW 2, Al^3+) was ≥ 53^5) %. For the same compound, the “Expulsion [%]” value ([2]; DW 2, Ca^2+) was 98%, the “Expulsion [%]” value ([2]; DW 2, Cu^2+) was ≥ 82^5) % and the “Expulsion [%]” value ([2]; DW 2, Mg^2+) was 99%. For the same compound, the “Expulsion [%]” value ([2]; DW 2, Na^+) was 9%, the “Expulsion [%]” value ([2]; DW 2, Sr^2+) was 74% and the “Expulsion [%]” value ([2]; DW 2, Zn^2+) was 91%. The “Expulsion [%]” value ([3]; Al^3+, 4° C.) was 6.3%, the “Expulsion [%]” value ([3]; Al^3+, 7° C.) was 15.4% and the “Expulsion [%]” value ([3]; Al^3+, 22° C.) was 18.5%. For the same compound, the “Expulsion [%]” value ([3]; Al^3+, 30° C.) was 14.6%, the “Expulsion [%]” value ([3]; Al^3+, 40° C.) was 98.0% and the “Expulsion [%]” value ([3]; Al^3+, 50° C.) was 97.6%. The “Expulsion [%]” value ([3]; Ca^2+, 4° C.) was 0.0%, the “Expulsion [%]” value ([3]; Ca^2+, 7° C.) was 0.0% and the “Expulsion [%]” value ([3]; Ca^2+, 22° C.) was 9.4%. For the same compound, the “Expulsion [%]” value ([3]; Ca^2+, 30° C.) was 10.0%, the “Expulsion [%]” value ([3]; Ca^2+, 40° C.) was 63.5% and the “Expulsion [%]” value ([3]; Ca^2+, 50° C.) was 71.2%. The “Expulsion [%]” value ([3]; Cd^2+, 4° C.) was 16.1%, the “Expulsion [%]” value ([3]; Cd^2+, 7° C.) was 18.3% and the “Expulsion [%]” value ([3]; Cd^2+, 22° C.) was 34.5%. For the same compound, the “Expulsion [%]” value ([3]; Cd^2+, 30° C.) was 41.3%, the “Expulsion [%]” value ([3]; Cd^2+, 40° C.) was 99.0% and the “Expulsion [%]” value ([3]; Cd^2+, 50° C.) was 98.9%. The “Expulsion [%]” value ([3]; Fe^2/3+, 4° C.) was 0.0%, the “Expulsion [%]” value ([3]; Fe^2/3+, 7° C.) was 0.7% and the “Expulsion [%]” value ([3]; Fe^2/3+, 22° C.) was 5.2%. For the same compound, the “Expulsion [%]” value ([3]; Fe^2/3+, 30° C.) was 4.4%, the “Expulsion [%]” value ([3]; Fe^2/3+, 40° C.) was 99.3% and the “Expulsion [%]” value ([3]; Fe^2/3+, 50° C.) was ≥ 99.3^1%. The “Expulsion [%]” value ([3]; Mg^2+, 4° C.) was 0.7%, the “Expulsion [%]” value ([3]; Mg^2+, 7° C.) was 0.7% and the “Expulsion [%]” value ([3]; Mg^2+, 22° C.) was 7.1%. The “Expulsion [%]” value ([3]; Mg^2+, 30° C.) was 5.5%, the “Expulsion [%]” value ([3]; Mg^2+, 40° C.) was ≥ 97.7^1% and the “Expulsion [%]” value ([3]; Mg^2+, 50° C.) was ≥ 97.7^1%. The “Expulsion [%]” value ([3]; Mn^2+, 4° C.) was 4.6%, the “Expulsion [%]” value ([3]; Mn^2+, 7° C.) was 5.3% and the “Expulsion [%]” value ([3]; Mn^2+, 22° C.) was 14.7%. The “Expulsion [%]” value ([3]; Mn^2+, 30° C.) was 13.3%, the “Expulsion [%]” value ([3]; Mn^2+, 40° C.) was ≥ 99.7^1% and the “Expulsion [%]” value ([3]; Mn^2+, 50° C.) was ≥ 99.7^1%. For the same compound, the “Expulsion [%]” value ([3]; Ni^2+, 4° C.) was 0.9%, the “Expulsion [%]” value ([3]; Ni^2+, 7° C.) was 1.4% and the “Expulsion [%]” value ([3]; Ni^2+, 22° C.) was 4.6%. The “Expulsion [%]” value ([3]; Ni^2+, 30° C.) was 4.6%, the “Expulsion [%]” value ([3]; Ni^2+, 40° C.) was 97.1% and the “Expulsion [%]” value ([3]; Ni^2+, 50° C.) was 95.2%. The “Expulsion [%]” value ([3]; Pb^2+, 4° C.) was ≥ 98.1^1%, the “Expulsion [%]” value ([3]; Pb^2+, 7° C.) was ≥ 98.1^1% and the “Expulsion [%]” value ([3]; Pb^2+, 22° C.) was ≥ 98.1^1%. For the same compound, the “Expulsion [%]” value ([3]; Pb^2+, 30° C.) was ≥ 98.1^1%, the “Expulsion [%]” value ([3]; Pb^2+, 40° C.) was ≥ 98.1^1% and the “Expulsion [%]” value ([3]; Pb^2+, 50° C.) was ≥ 98.1^1%. For the same compound, the “Expulsion [%]” value ([3]; Zn^2+, 4° C.) was 9.0%, the “Expulsion [%]” value ([3]; Zn^2+, 7° C.) was 10.4% and the “Expulsion [%]” value ([3]; Zn^2+, 22° C.) was 22.9%. For the same compound, the “Expulsion [%]” value ([3]; Zn^2+, 30° C.) was 25.7%, the “Expulsion [%]” value ([3]; Zn^2+, 40° C.) was 97.6% and the “Expulsion [%]” value ([3]; Zn^2+, 50° C.) was 98.0%. For the same compound, the “Expulsion [%]” value ([4]; Eu^3+) was 98%, the “Expulsion [%]” value ([4]; La^3+) was 100% and the “Expulsion [%]” value ([4]; Nb^5+) was 100%. The “Expulsion [%]” value ([4]; Nd^3+) was 100%, the “Expulsion [%]” value ([4]; Ni^2+) was 72% and the “Expulsion [%]” value ([4]; UO2^2+) was 100%. The “Expulsion [%]” value ([4]; Y^3+) was 100%, the “Expulsion [%]” value ([4]; Zn^2+) was 97% and the “Expulsion [%]” value ([4]; Zr^4+) was 100%.
